# Measurements published in patent US9365588B2, “Benzoxazines as modulators of ion channels” (Vertex Pharmaceuticals Incorporated, priority 2011, dated 2016).
# Molecular target: human NaV 1.7 (Homo sapiens, UniProt Q15858)
# Experiment: E-VIPR optical membrane potential assay with electrical stimulation
# Type: cell-based
# Conditions: sodium channel inhibition; read-out: Binned Activity Data (IC50)
# How it was run: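 Membrane-potential read-out: background-subtracted 460 nm/580 nm ratio during a 9 s current-controlled stimulus, 400 Hz scan. Before stimulation, NaV1.7-HEK cells carried coumarin/oxonol dye and compound (final DMSO 0.625%) for 20–35 min at room temperature; tetracaine 125 μM served as positive control.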
# Chain of human NaV 1.7 (Q15858 whole entry): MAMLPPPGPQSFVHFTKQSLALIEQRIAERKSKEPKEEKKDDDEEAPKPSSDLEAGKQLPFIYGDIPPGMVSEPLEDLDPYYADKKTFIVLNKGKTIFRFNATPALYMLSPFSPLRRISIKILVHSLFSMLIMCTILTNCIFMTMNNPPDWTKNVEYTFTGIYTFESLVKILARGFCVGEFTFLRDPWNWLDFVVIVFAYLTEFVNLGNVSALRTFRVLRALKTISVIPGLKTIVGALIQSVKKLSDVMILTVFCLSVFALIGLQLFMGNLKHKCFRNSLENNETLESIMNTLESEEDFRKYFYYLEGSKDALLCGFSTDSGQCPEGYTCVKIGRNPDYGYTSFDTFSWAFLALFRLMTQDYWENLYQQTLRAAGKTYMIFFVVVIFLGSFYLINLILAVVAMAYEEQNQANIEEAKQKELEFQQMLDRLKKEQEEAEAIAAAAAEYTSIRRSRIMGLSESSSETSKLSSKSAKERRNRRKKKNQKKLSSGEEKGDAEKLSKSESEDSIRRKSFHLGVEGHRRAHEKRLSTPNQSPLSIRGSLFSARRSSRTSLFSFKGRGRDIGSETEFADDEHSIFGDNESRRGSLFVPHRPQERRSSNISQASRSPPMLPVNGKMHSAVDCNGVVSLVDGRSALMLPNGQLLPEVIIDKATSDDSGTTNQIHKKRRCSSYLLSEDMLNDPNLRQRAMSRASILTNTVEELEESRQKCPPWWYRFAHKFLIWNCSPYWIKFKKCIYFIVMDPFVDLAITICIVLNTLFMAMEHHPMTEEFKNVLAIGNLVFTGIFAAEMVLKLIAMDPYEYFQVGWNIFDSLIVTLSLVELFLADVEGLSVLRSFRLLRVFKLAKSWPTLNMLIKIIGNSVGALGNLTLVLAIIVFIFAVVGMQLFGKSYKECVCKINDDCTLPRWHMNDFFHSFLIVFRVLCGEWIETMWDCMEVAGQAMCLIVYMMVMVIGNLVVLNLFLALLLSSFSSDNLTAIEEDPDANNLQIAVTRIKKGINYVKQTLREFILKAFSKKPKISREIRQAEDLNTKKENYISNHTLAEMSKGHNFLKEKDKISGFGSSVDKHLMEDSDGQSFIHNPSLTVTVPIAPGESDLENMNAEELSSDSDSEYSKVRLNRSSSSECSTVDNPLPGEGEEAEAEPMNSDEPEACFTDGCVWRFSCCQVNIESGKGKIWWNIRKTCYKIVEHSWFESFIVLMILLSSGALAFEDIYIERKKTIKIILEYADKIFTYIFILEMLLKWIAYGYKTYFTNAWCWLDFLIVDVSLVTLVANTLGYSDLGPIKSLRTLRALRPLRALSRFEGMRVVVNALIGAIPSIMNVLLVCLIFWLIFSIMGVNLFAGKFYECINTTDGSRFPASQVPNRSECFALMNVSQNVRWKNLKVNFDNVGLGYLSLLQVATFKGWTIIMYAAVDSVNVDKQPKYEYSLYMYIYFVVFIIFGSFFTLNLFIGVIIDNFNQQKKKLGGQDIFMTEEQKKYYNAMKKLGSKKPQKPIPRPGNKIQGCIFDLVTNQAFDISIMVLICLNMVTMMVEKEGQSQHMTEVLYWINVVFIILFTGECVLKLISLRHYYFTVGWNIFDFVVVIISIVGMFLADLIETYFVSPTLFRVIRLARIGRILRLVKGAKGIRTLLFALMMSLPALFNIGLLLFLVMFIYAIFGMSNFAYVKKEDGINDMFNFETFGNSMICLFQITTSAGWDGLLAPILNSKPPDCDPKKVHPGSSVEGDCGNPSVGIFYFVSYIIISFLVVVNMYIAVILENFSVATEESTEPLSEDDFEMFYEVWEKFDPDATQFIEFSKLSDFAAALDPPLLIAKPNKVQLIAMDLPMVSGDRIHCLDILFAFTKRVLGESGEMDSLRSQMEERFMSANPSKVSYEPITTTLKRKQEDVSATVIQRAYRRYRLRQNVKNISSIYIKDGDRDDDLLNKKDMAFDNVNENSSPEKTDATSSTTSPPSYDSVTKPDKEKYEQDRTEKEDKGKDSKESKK
row,IC50,SMILES
1,≤ 2000 nM,COc1cc(C(C)(C)O)ccc1C(=O)N1CCC2(CC1)Oc1ccccc1-n1c(C#N)ccc12 [Compound 622]
2,≤ 2000 nM,Cn1ncc2c1-c1ccc(Cl)cc1OC21CCN(C(=O)c2ccccc2OC(F)F)CC1 [Compound 623]
3,≤ 2000 nM,Cn1ncc2c1-c1ccccc1OC21CCN(C(=O)c2ccc(S(=O)(=O)C(F)F)cc2)CC1 [Compound 626]
4,≤ 2000 nM,COc1cc(C)ccc1C(=O)N1CCC2(CC1)Oc1cc(Cl)ccc1-n1cccc12 [Compound 627]
5,≤ 2000 nM,COCCOc1cc(F)c(C(=O)N2CCC3(CC2)Oc2cc(Cl)ccc2-n2cccc23)cc1OC [Compound 628]
6,≤ 2000 nM,CCCOc1ccc(C(=O)N2CCC3(CC2)Oc2cc(F)ccc2-n2cccc23)cc1C(F)(F)F [Compound 631]
7,≤ 2000 nM,COc1cc(C(=O)N2CCC3(CC2)Oc2cc(F)ccc2-n2cccc23)ccc1OCC1CCCO1 (centres unmarked) [Compound 632]
8,≤ 2000 nM,Cc1cc(C(C)(C)O)ccc1C(=O)N1CCC2(CC1)Oc1ccccc1-n1c(C#N)ccc12 [Compound 633]
9,≤ 2000 nM,COc1cc(C(=O)N2CCC3(CC2)Oc2cc(Cl)ccc2-n2cccc23)ccc1CCO [Compound 635]
10,≤ 2000 nM,Cn1ncc2c1-c1ccccc1OC21CCN(C(=O)c2ccc(OC(F)(F)F)c(Cl)c2)CC1 [Compound 636]
11,≤ 2000 nM,COc1cc(C(C)(C)O)ccc1C(=O)N1CCC2(CC1)Oc1ccccc1-c1c2cnn1C [Compound 637]
12,≤ 2000 nM,C[C@@](O)(CO)c1ccc(C(=O)N2CCC3(CC2)Oc2ccccc2-n2c(C(F)(F)F)ccc23)cc1 [Compound 640]
13,2000 to 5000 nM,COc1ncccc1C(=O)N1CCC2(CC1)Oc1ccccc1-c1c2cnn1C [Compound 642]
14,2000 to 5000 nM,Cn1ncc2c1-c1ccccc1OC21CCN(C(=O)c2ccc(S(=O)(=O)C(C)(C)C)cc2)CC1 [Compound 643]
15,> 5000 nM,Cn1ncc2c1-c1ccccc1OC21CCN(C(=O)c2cccc3cnn(C)c23)CC1 [Compound 644]
16,≤ 2000 nM,COc1ccc(C(=O)N2CCC3(CC2)Oc2ccccc2-c2nn(C)cc23)c(OC)c1OC [Compound 646]
17,≤ 2000 nM,CC(C)Oc1ccc(C(=O)N2CCC3(CC2)Oc2ccccc2-c2c3cnn2C)cc1F [Compound 650]
18,≤ 2000 nM,Cn1ncc2c1-c1ccccc1OC21CCN(C(=O)c2cccc3cccnc23)CC1 [Compound 651]
19,≤ 2000 nM,Cn1cc2c(n1)-c1ccccc1OC21CCN(C(=O)c2ccnc3ccccc23)CC1 [Compound 652]

row,IC50,SMILES
1,≤ 2000 nM,Cn1ncc2c1-c1cc(Cl)ccc1OC21CCN(C(=O)c2ccccc2OC(F)(F)F)CC1 [Compound 653]
2,≤ 2000 nM,Cc1cc(C(=O)N2CCC3(CC2)Oc2ccccc2-n2c(C#N)ccc23)ccc1OC(C)C [Compound 655]
3,> 5000 nM,Cn1ncc2c1-c1ccccc1OC21CCN(C(=O)c2nccc3ccccc23)CC1 [Compound 657]
4,≤ 2000 nM,Cc1nc(C(=O)N2CCC3(CC2)Oc2ccccc2-n2c(C(F)(F)F)ccc23)ccc1OC(C)C [Compound 658]
5,> 5000 nM,N#Cc1ccc2n1-c1ccccc1OC21CCN(C(=O)c2ccc(F)c(Cl)c2)CC1 [Compound 659]
6,≤ 2000 nM,COc1cc(OC)c(C(=O)N2CCC3(CC2)Oc2cc(F)ccc2-n2cccc23)cc1CO [Compound 660]
7,2000 to 5000 nM,CC(C)S(=O)(=O)c1ccc(C(=O)N2CCC3(CC2)Oc2cc(F)ccc2-c2c3cnn2C)cc1 [Compound 662]
8,≤ 2000 nM,Cn1ncc2c1-c1ccccc1OC21CCN(C(=O)c2ccc(S(=O)(=O)C(F)(F)F)cc2)CC1 [Compound 663]
9,≤ 2000 nM,COc1ccc(C(=O)N2CCC3(CC2)Oc2ccccc2-c2c3cnn2C)c(OC(F)(F)F)c1 [Compound 664]
10,≤ 2000 nM,COc1c(F)cccc1C(=O)N1CCC2(CC1)Oc1cc(Cl)ccc1-n1c(C#N)ccc12 [Compound 665]
11,2000 to 5000 nM,CC(C)[S+]([O-])c1ccc(C(=O)N2CCC3(CC2)Oc2ccccc2-c2c3cnn2C)cc1 (centres unmarked) [Compound 666]
12,> 5000 nM,Cn1ncc2c1-c1ccccc1OC21CCN(C(=O)c2ccc(Cl)cc2S(C)(=O)=O)CC1 [Compound 667]
13,≤ 2000 nM,COc1cc(C(=O)N2CCC3(CC2)Oc2ccccc2-c2c3cnn2C)ccc1OC[C@@H](C)OC [Compound 668]
14,≤ 2000 nM,CCc1ccc(C(=O)N2CCC3(CC2)Oc2cc(COC)ccc2-n2cccc23)cc1OC [Compound 669]
15,> 5000 nM,Cn1cc(C(=O)N2CCC3(CC2)Oc2cc(Cl)ccc2-n2cccc23)ccc1=O [Compound 670]
16,≤ 2000 nM,N#Cc1ccc2n1-c1ccccc1OC21CCN(C(=O)c2ccc(O)cc2)CC1 [Compound 671]
17,≤ 2000 nM,COc1ccccc1C(=O)N1CCC2(CC1)Oc1ccccc1-c1c2cnn1C [Compound 672]
18,≤ 2000 nM,COc1c(Cl)cccc1C(=O)N1CCC2(CC1)Oc1ccccc1-c1c2cnn1C [Compound 673]
19,2000 to 5000 nM,CCn1ncc2c1-c1cc(F)ccc1OC21CCN(C(=O)c2ccccc2OC)CC1 [Compound 674]

row,IC50,SMILES
1,≤ 2000 nM,CNS(=O)(=O)c1ccc(C(=O)N2CCC3(CC2)Oc2ccccc2-n2c(C(F)(F)F)ccc23)cc1 [Compound 675]
2,≤ 2000 nM,Cc1cc(C(=O)N2CCC3(CC2)Oc2ccccc2-n2c(CNC=O)ccc23)ccc1OC(C)C [Compound 677]
3,≤ 2000 nM,COc1cc(C(=O)N2CCC3(CC2)Oc2ccccc2-n2cccc23)ccc1OC1CCC(O)C1 (centres unmarked) [Compound 678]
4,2000 to 5000 nM,CC(C)S(=O)(=O)c1ccc(C(=O)N2CCC3(CC2)Oc2cc(Cl)ccc2-n2c(C#N)ccc23)cc1 [Compound 679]
5,≤ 2000 nM,CC[C@@H](C)Oc1ccc(C(=O)N2CCC3(CC2)Oc2cc(Cl)ccc2-n2cccc23)cc1OC [Compound 681]
6,≤ 2000 nM,CC(C)(O)Cc1ccc(C(=O)N2CCC3(CC2)Oc2ccccc2-n2c(C(F)(F)F)ccc23)cc1 [Compound 682]
7,≤ 2000 nM,COc1cc(C(=O)N2CCC3(CC2)Oc2cc(F)ccc2-n2cccc23)ccc1O[C@@H]1CCOC1 [Compound 683]
8,≤ 2000 nM,C[S+]([O-])c1ccc(C(=O)N2CCC3(CC2)Oc2ccccc2-n2c(C#N)ccc23)cc1C(F)(F)F (centres unmarked) [Compound 684]
9,2000 to 5000 nM,CC(C)(CO)S(=O)(=O)c1ccc(C(=O)N2CCC3(CC2)Oc2ccccc2-n2c(C(F)(F)F)ccc23)cc1 [Compound 685]
10,≤ 2000 nM,COc1cc(C(=O)N2CCC3(CC2)Oc2ccccc2-n2c(C#N)ccc23)ccc1OC(C)(C)C [Compound 686]
11,≤ 2000 nM,COc1cc(C(=O)N2CCC3(CC2)Oc2ccccc2-n2cccc23)ccc1OCC(N)=O [Compound 687]
12,≤ 2000 nM,Cc1cc(C(=O)N2CCC3(CC2)Oc2ccccc2-c2nn(C)cc23)ccc1OC(C)C [Compound 689]
13,2000 to 5000 nM,COc1cc(C(=O)N2CCC3(CC2)Oc2cc(Cl)ccc2-n2cccc23)ccc1O[C@H]1CCOC1 [Compound 690]
14,≤ 2000 nM,COc1cc(C(=O)N2CCC3(CC2)Oc2cc(F)ccc2-n2cccc23)ccc1OC[C@@H]1COC(C)(C)O1 [Compound 693]
15,≤ 2000 nM,COc1cc(OC(C)C)ccc1C(=O)N1CCC2(CC1)Oc1ccccc1-c1c2cnn1C [Compound 694]
16,≤ 2000 nM,CCc1ccc(C(=O)N2CCC3(CC2)Oc2cc(Cl)ccc2-n2cccc23)cc1OC [Compound 697]
17,≤ 2000 nM,COc1cc(C(=O)N2CCC3(CC2)Oc2ccccc2-n2c(C#N)ccc23)ccc1C(C)(C)CO [Compound 698]
18,≤ 2000 nM,COc1c(F)cccc1C(=O)N1CCC2(CC1)Oc1ccccc1-c1c2cnn1C [Compound 699]
